# Values quoted from earlier work in patent US20210023023A1, “LIPOSOMAL NUTRACEUTICAL COMPOSITIONS AND METHODS OF MAKING THE SAME” (VASAYO, LLC, priority 2019, published 2021).
# Conditions: in studies
structure (smiles),measurement,value
"C=C(C)[C@@H]1CCC(C)=C[C@H]1c1c(O)cc(CCCCC)cc1O [CBD, cannabidiol]","anti-inflammatory effects, potency relative to aspirin",several hundred times more potent than aspirin
